Assays:
[1] = test system: Six strains of Bacillus species; assay: Nathans Agar Well Diffusion technique, 3 replicate assays; type: cell-based; conditions: for average zone of inhibition: average over Bacillus strains tested
[2] = test system: Stearns strain of B. anthracis; type: cell-based, Bacillus anthracis
[3] = test system: Ames strain of B. anthracis; type: cell-based, Bacillus anthracis
E. faecalis = assay: d-limonene inoculation assay (phenol-coefficient), subculture at 24/48/72 hr; type: cell-based, Enterococcus faecalis; parameters: key: NG = no growth; conditions: >10^5 CFU/ml in 2 ml d-limonene
S. marcescens = type: cell-based, Serratia marcescens; parameters: key: NG = no growth
Streptococcus mutans = type: cell-based
Ac. baum/haemo = assay: d-limonene inoculation assay (phenol-coefficient), subculture at 24/48/72 hr; type: cell-based, Acinetobacter baummii/haemolyticus; parameters: key: NG = no growth; conditions: >10^5 CFU/ml in 2 ml d-limonene
[4] = test system: other beta hemolytic streptococci; type: cell-based
Ent. cloacae = type: cell-based, Enterobacter cloacae; parameters: key: NG = no growth
Streptococcus pyogenes = type: cell-based
S. maltophilia = type: cell-based, Stenotrophomonas maltophila; parameters: key: NG = no growth
E. faecium = assay: d-limonene inoculation assay (phenol-coefficient), subculture at 24/48/72 hr; type: cell-based, Enterococcus faecium; parameters: key: NG = no growth; conditions: >10^5 CFU/ml in 2 ml d-limonene
S. epidermidis = assay: as above; type: cell-based, Staphylococcus epidermidis; parameters: key: NG = no growth; conditions: >10^5 CFU/ml in 2 ml d-limonene
K. pneumoniae = assay: as above; type: cell-based, Klebsiella pneumoniae; parameters: key: NG = no growth; conditions: >10^5 CFU/ml in 2 ml d-limonene
E. coli = assay: as above; type: cell-based, Escherichia coli; parameters: key: NG = no growth; conditions: >10^5 CFU/ml in 2 ml d-limonene
S. aureus = assay: as above; type: cell-based, Staphylococcus aureus; parameters: key: NG = no growth; conditions: >10^5 CFU/ml in 2 ml d-limonene
P. aeruginosa = assay: as above; type: cell-based, Pseudomonas aeruginosa; parameters: key: NG = no growth; conditions: >10^5 CFU/ml in 2 ml d-limonene

O=[N+]([O-])[O-].[Ag+] [AgNO3, silver nitrate]
average zone of inhibition [1]: 16 mm | average inhibition zone [2]: 18 mm | zone of inhibition [3]: 16 mm

C=C(C)[C@H]1CC=C(C)CC1 [d-limonene]
average zone of inhibition [1]: 21 mm | Growth at 24 hr (E. faecalis; 24 hr): NG | Growth at 48 hr (E. faecalis; 48 hr): NG | Growth at 72 hr (E. faecalis; 72 hr): NG | Growth at 24 hr (S. marcescens; 24 hr): NG* | Growth at 48 hr (S. marcescens; 48 hr): NG | Growth at 72 hr (S. marcescens; 72 hr): NG | eradication of the pathogen (Streptococcus mutans): effective in eradicating | Growth at 24 hr (Ac. baum/haemo; 24 hr): NG | Growth at 48 hr (Ac. baum/haemo; 48 hr): NG | Growth at 72 hr (Ac. baum/haemo; 72 hr): NG | eradication of the pathogen [4]: effective in eradicating | Growth at 24 hr (Ent. cloacae; 24 hr): NG | Growth at 48 hr (Ent. cloacae; 48 hr): NG | Growth at 72 hr (Ent. cloacae; 72 hr): NG | eradication of the pathogen (Streptococcus pyogenes): effective in eradicating | Growth at 24 hr (S. maltophilia; 24 hr): NG | Growth at 48 hr (S. maltophilia; 48 hr): NG | Growth at 72 hr (S. maltophilia; 72 hr): NG | Growth at 24 hr (E. faecium; 24 hr): NG | Growth at 48 hr (E. faecium; 48 hr): NG | Growth at 72 hr (E. faecium; 72 hr): NG | Growth at 24 hr (S. epidermidis; 24 hr): NG | Growth at 48 hr (S. epidermidis; 48 hr): NG | Growth at 72 hr (S. epidermidis; 72 hr): NG | average inhibition zone [2]: 30 mm | zone of inhibition [3]: 21 mm | Growth at 24 hr (K. pneumoniae; 24 hr): NG | Growth at 48 hr (K. pneumoniae; 48 hr): NG | Growth at 72 hr (K. pneumoniae; 72 hr): NG | Growth at 24 hr (E. coli; 24 hr): NG | Growth at 48 hr (E. coli; 48 hr): NG | Growth at 72 hr (E. coli; 72 hr): NG | Growth at 24 hr (S. aureus; 24 hr): NG* | Growth at 48 hr (S. aureus; 48 hr): NG | Growth at 72 hr (S. aureus; 72 hr): NG | Growth at 24 hr (P. aeruginosa; 24 hr): NG | Growth at 48 hr (P. aeruginosa; 48 hr): NG | Growth at 72 hr (P. aeruginosa; 72 hr): NG

NC(=O)N/N=C/c1ccc([N+](=O)[O-])o1 [Furacin, nitrofurazone]
average zone of inhibition [1]: 35 mm | average inhibition zone [2]: 33 mm

OCl [NaOCl, sodium hypochlorite]
average zone size ([1]; only inhibited P. polymyxa, B. sphaericus and B. cereus): 16 mm | susceptibility of the strain to the product [2]: susceptible to all products tested except | zone of inhibition [3]: no zones of inhibition

NCc1ccc(S(N)(=O)=O)cc1 [mafenide acetate]
average zone of inhibition [1]: 36 mm | average inhibition zone [2]: 38 mm | susceptibility of the strain to the product [2]: susceptible | susceptibility of the strain to the product [3]: susceptible | zone of inhibition [3]: 34 mm

C/C(=C\C(=O)OCCCCCCCCC(=O)O)C[C@@H]1OC[C@H](C[C@@H]2O[C@H]2[C@@H](C)[C@H](C)O)[C@@H](O)[C@H]1O [Bactroban]
average zone of inhibition [1]: 46 mm | average inhibition zone [2]: 45 mm | susceptibility of the strain to the product [2]: susceptible | susceptibility of the strain to the product [3]: susceptible | zone of inhibition [3]: 35 mm
